Measured values: patent US20250163104A1, “MACROCYCLIC IMMUNOMODULATORS” (priority 2021, published 2025)
pIC50: −log10 of the molar value. Where a SMILES comes first, the peptide text is derived from it. Bridges are numbered along the chain shown (N, C = ends). [ ]: non-standard residue; d: D form. The star is where a group is joined. ξ: configuration not given here. Ala(1H-tetrazol-5-yl) = N[C@@H](Cc1nnn[nH]1)C(=O)O; Phe(4-COOH) = N[C@@H](Cc1ccc(C(=O)O)cc1)C(=O)O; Bip = N[C@@H](Cc1ccc(-c2ccccc2)cc1)C(=O)O; Phe(3-Me) = Cc1cccc(C[C@H](N)C(=O)O)c1; Phe(4-F) = N[C@@H](Cc1ccc(F)cc1)C(=O)O; AEF = NCCOc1ccc(C[C@H](N)C(=O)O)cc1; Gly(cPent) = N[C@H](C(=O)O)C1CCCC1; Val(3-OH) = CC(C)(O)[C@H](N)C(=O)O; 3Pal = N[C@@H](Cc1cccnc1)C(=O)O; 4Pal = N[C@@H](Cc1ccncc1)C(=O)O; Cha = N[C@@H](CC1CCCCC1)C(=O)O; Cit = NC(=O)NCCC[C@H](N)C(=O)O; Ile(3ξ) = CCC(C)[C@H](N)C(=O)O; dCha = N[C@H](CC1CCCCC1)C(=O)O; Thr(3ξ) = CC(O)[C@H](N)C(=O)O; dNle = CCCC[C@@H](N)C(=O)O; hSer = N[C@@H](CCO)C(=O)O; Carboxymethyl = O=C(O)C*; Orn = NCCC[C@H](N)C(=O)O; Dab = NCC[C@H](N)C(=O)O; Dap = NC[C@H](N)C(=O)O

These compounds were tested against T1, human PD-1 / PD-L1-Ig binding on Jurkat cell line over-expressing human PD-1 (Jurkat-PD-1) (Homo sapiens, UniProt Q15116) (assay: Jurkat-PD-1 Cell Binding High-Content Screening Assay (CBA)). Conditions: Jurkat-PD-1 cells, PE-labeled PD-L1-Ig 20 nM final; read-out: Jurkat HPD1_PDL1 IC50.
T1 construct: expressed in transfected cells; host or cells: Jurkat
Assay type: cell-based
Summary of the method: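 PE-PD-L1-Ig 20 nM final; cells in DMEM/10% FCS; cpd pre-incubation 2 h, 37° C; ligand 1 h; PFA fix + Hoechst 33342; high-content imaging read-out.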

T1 sequence (Q15116 25-288): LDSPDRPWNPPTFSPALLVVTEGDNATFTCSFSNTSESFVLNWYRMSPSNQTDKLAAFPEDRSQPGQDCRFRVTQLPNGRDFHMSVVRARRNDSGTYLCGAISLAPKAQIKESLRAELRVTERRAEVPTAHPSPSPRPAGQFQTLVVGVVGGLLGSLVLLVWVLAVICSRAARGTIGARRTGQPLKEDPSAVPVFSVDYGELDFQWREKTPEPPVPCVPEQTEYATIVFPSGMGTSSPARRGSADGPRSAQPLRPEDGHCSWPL

| pIC50 | Compound |
| --- | --- |
| 7.87 | CC(C)[C@@H]1NC(=O)[C@H](Cc2c[nH]c3ccccc23)NC(=O)[C@H](CC(=O)O)NC(=O)[C@H](Cc2ccncc2)NC(=O)[C@H](Cc2ccc(OCC(=O)O)cc2)NC(=O)CSC[C@@H](C(=O)N[C@@H](C)C(N)=O)NC(=O)[C@H]([C@@H](C)O)NC(=O)[C@H](C(C)C)NC(=O)[C@H](CC2CCCCC2)NC(=O)[C@H](CCN)NC(=O)[C@@H](CC2CCCCC2)NC(=O)[C@H](CCCN)NC(=O)[C@H](CCC(=O)O)NC(=O)[C@H](Cc2ccc(-c3ccccc3)cc2)NC1=O [Compound 1441] ({CH2CO}-Y(Carboxymethyl)[4Pal]DWV[Bip]E[Orn][dCha][Dab][Cha]VTCA-NH2; thioether N-14) |
| 8.20 | COCC[C@@H]1NC(=O)CSC[C@@H](C(=O)N[C@@H](CCN)C(N)=O)NC(=O)[C@H](CO)NC(=O)[C@H](C(C)(C)O)NC(=O)[C@H](CC2CCCCC2)NC(=O)[C@H](CCN)NC(=O)[C@@H](CC(C)C)NC(=O)[C@H](CCCN)NC(=O)[C@H](Cc2ccc(OCC(=O)O)cc2)NC(=O)[C@H](Cc2ccc(-c3ccccc3)cc2)NC(=O)[C@H](Cc2ccc(OCC(=O)O)cc2)NC(=O)[C@H](Cc2cccc(C)c2)NC(=O)[C@H](CC(=O)O)NC(=O)[C@H](Cc2ccc(C(=O)O)cc2)NC1=O [Compound 2079] ({CH2CO}-[hSer](Me)[Phe(4-COOH)]D[Phe(3-Me)]Y(Carboxymethyl)[Bip]Y(Carboxymethyl)[Orn][dL][Dab][Cha][Val(3-OH)]SC[Dab]-NH2; thioether N-14) |
| 8.72 | Cc1cccc(C[C@@H]2NC(=O)[C@H](CC(=O)O)NC(=O)[C@H](Cc3ccc(C(=O)O)cc3)NC(=O)[C@H](Cc3ccc(F)cc3)NC(=O)CSC[C@@H](C(=O)N[C@@H](CCN)C(N)=O)NC(=O)[C@H](Cc3cnc[nH]3)NC(=O)[C@H](C(C)(C)O)NC(=O)[C@H](CC3CCCCC3)NC(=O)[C@H](CCN)NC(=O)[C@@H](CC(C)C)NC(=O)[C@H](CCCN)NC(=O)[C@H](Cc3ccc(OCC(=O)O)cc3)NC(=O)[C@H](Cc3ccc(-c4ccccc4)cc3)NC(=O)[C@H](Cc3ccc(OCC(=O)O)cc3)NC2=O)c1 [Compound 2684] ({CH2CO}-[Phe(4-F)][Phe(4-COOH)]D[Phe(3-Me)]Y(Carboxymethyl)[Bip]Y(Carboxymethyl)[Orn][dL][Dab][Cha][Val(3-OH)]HC[Dab]-NH2; thioether N-14) |
| 7.97 | Cc1cccc(C[C@@H]2NC(=O)[C@H](CC(=O)O)NC(=O)[C@H](Cc3ccncc3)NC(=O)[C@H](Cc3ccc(OCC(=O)O)cc3)NC(=O)CSC[C@@H](C(=O)N[C@@H](C)C(N)=O)NC(=O)[C@H]([C@@H](C)O)NC(=O)[C@H](C(C)C)NC(=O)[C@H](CC3CCCCC3)NC(=O)[C@H](CCN)NC(=O)[C@@H](Cc3ccccc3)NC(=O)[C@H](CCCN)NC(=O)[C@H](CCC(=O)O)NC(=O)[C@H](Cc3ccc(-c4ccccc4)cc3)NC(=O)[C@H](C(C)C)NC2=O)c1 [Compound 1430] ({CH2CO}-Y(Carboxymethyl)[4Pal]D[Phe(3-Me)]V[Bip]E[Orn][dF][Dab][Cha]VTCA-NH2; thioether N-14) |
| 6.13 | CC(C)C[C@H]1NC(=O)[C@H](CCCN)NC(=O)[C@H](CCC(=O)O)NC(=O)[C@H](Cc2ccc(-c3ccccc3)cc2)NC(=O)[C@H](C(C)C)NC(=O)[C@H](Cc2c[nH]c3ccccc23)NC(=O)[C@H](CC(=O)O)NC(=O)[C@H](Cc2ccc(OCC(=O)O)cc2)NC(=O)[C@H](CN)NC(=O)CSC[C@@H](C(=O)N[C@@H](C)C(N)=O)NC(=O)[C@H]([C@@H](C)O)NC(=O)[C@H](C(C)C)NC(=O)[C@H](Cc2ccc(OCCN)cc2)NC(=O)[C@H](CCN)NC1=O [Compound 1511] ({CH2CO}-[Dap]Y(Carboxymethyl)DWV[Bip]E[Orn][dL][Dab][AEF]VTCA-NH2; thioether N-14) |
| 7.56 | COc1cccc(C[C@@H]2NC(=O)[C@H](CC(=O)O)NC(=O)[C@H](Cc3ccc(O)cc3)NC(=O)[C@H](Cc3ccncc3)NC(=O)CSC[C@@H](C(=O)N[C@@H](C)C(N)=O)NC(=O)[C@H]([C@@H](C)O)NC(=O)[C@H](C(C)C)NC(=O)[C@H](CC3CCCCC3)NC(=O)[C@H](CCN)NC(=O)[C@@H](CC(C)C)NC(=O)[C@H](CCCN)NC(=O)[C@H](CCC(=O)O)NC(=O)[C@H](Cc3ccc(-c4ccccc4)cc3)NC(=O)[C@H](C(C)C)NC2=O)c1 [Compound 1543] |
| 8.27 | CC(C)C[C@H]1NC(=O)[C@H](CCCN)NC(=O)[C@H](CCC(=O)O)NC(=O)[C@H](Cc2ccc(-c3ccccc3)cc2)NC(=O)[C@H](C(C)C)NC(=O)[C@H](Cc2c[nH]c3ccccc23)NC(=O)[C@H](CC(=O)O)NC(=O)[C@H](Cc2cccnc2)NC(=O)[C@H](CC(N)=O)NC(=O)CSC[C@@H](C(=O)N[C@@H](C)C(N)=O)NC(=O)[C@H]([C@@H](C)O)NC(=O)[C@H](C(C)C)NC(=O)[C@H](CC2CCCCC2)NC(=O)[C@H](CCN)NC1=O [Compound 2170] ({CH2CO}-N[3Pal]DWV[Bip]E[Orn][dL][Dab][Cha]VTCA-NH2; thioether N-14) |
| 7.87 | CCC(C)[C@@H]1NC(=O)[C@H](Cc2ccc(-c3ccccc3)cc2)NC(=O)[C@H](C(C)C)NC(=O)[C@H](Cc2c[nH]c3ccccc23)NC(=O)[C@H](CC(=O)O)NC(=O)[C@H](Cc2cccnc2)NC(=O)[C@H](Cc2ccncc2)NC(=O)CSC[C@@H](C(=O)N[C@@H](C)C(N)=O)NC(=O)[C@H]([C@@H](C)O)NC(=O)[C@H](C(C)C)NC(=O)[C@H](CC2CCCCC2)NC(=O)[C@H](CCN)NC(=O)[C@@H](CC(C)C)NC(=O)[C@H](CCCN)NC1=O (stereo partly drawn) [Compound 2232] ({CH2CO}-[4Pal][3Pal]DWV[Bip][Ile(3ξ)][Orn][dL][Dab][Cha]VTCA-NH2; thioether N-14) |
| 8.40 | CC(C)C[C@H]1NC(=O)[C@H](CCCN)NC(=O)[C@H](C(C)C)NC(=O)[C@H](Cc2ccc(-c3ccccc3)cc2)NC(=O)[C@H](C(C)C)NC(=O)[C@H](Cc2c[nH]c3ccccc23)NC(=O)[C@H](CC(=O)O)NC(=O)[C@H](Cc2ccc(C(=O)O)cc2)NC(=O)[C@H](Cc2ccc(OCC(=O)O)cc2)NC(=O)CSC[C@@H](C(=O)N[C@@H](C)C(N)=O)NC(=O)[C@H](CCCCN)NC(=O)[C@H](C(C)C)NC(=O)[C@H](CC2CCCCC2)NC(=O)[C@H](CCN)NC1=O [Compound 1745] ({CH2CO}-Y(Carboxymethyl)[Phe(4-COOH)]DWV[Bip]V[Orn][dL][Dab][Cha]VKCA-NH2; thioether N-14) |
| 8.09 | Cc1cccc(C[C@@H]2NC(=O)[C@H](CC(=O)O)NC(=O)[C@H](Cc3ccc(OCC(=O)O)cc3)NC(=O)[C@H](Cc3ccncc3)NC(=O)CSC[C@@H](C(=O)N[C@@H](C)C(N)=O)NC(=O)[C@H]([C@@H](C)O)NC(=O)[C@H](C(C)C)NC(=O)[C@H](CC3CCCCC3)NC(=O)[C@H](CCN)NC(=O)[C@@H](CC(C)C)NC(=O)[C@H](CCCN)NC(=O)[C@H](CCCNC(N)=O)NC(=O)[C@H](Cc3ccc(-c4ccccc4)cc3)NC(=O)[C@H](C(C)C)NC2=O)c1 [Compound 1196] |
| 7.46 | CC(C)C[C@H]1NC(=O)[C@H](CCCN)NC(=O)[C@H](CCCNC(N)=O)NC(=O)[C@H](Cc2ccc(-c3ccccc3)cc2)NC(=O)[C@H](C(C)C)NC(=O)[C@H](Cc2c[nH]c3ccccc23)NC(=O)[C@H](Cc2nn[nH]n2)NC(=O)[C@H](Cc2ccc(OCC(=O)O)cc2)NC(=O)[C@H](CN)NC(=O)CSC[C@@H](C(=O)N[C@@H](C)C(N)=O)NC(=O)[C@H]([C@@H](C)O)NC(=O)[C@H](C(C)C)NC(=O)[C@H](CC2CCCCC2)NC(=O)[C@H](CCN)NC1=O [Compound 1328] ({CH2CO}-[Dap]Y(Carboxymethyl)[Ala(1H-tetrazol-5-yl)]WV[Bip][Cit][Orn][dL][Dab][Cha]VTCA-NH2; thioether N-14) |
| 7.40 | CC(C)C[C@H]1NC(=O)[C@H](CCCN)NC(=O)[C@H](CCCNC(N)=O)NC(=O)[C@H](Cc2ccc(-c3ccccc3)cc2)NC(=O)[C@H](C(C)C)NC(=O)[C@H](Cc2c[nH]c3ccccc23)NC(=O)[C@H](CC(=O)O)NC(=O)[C@H](Cc2ccc(OCC(=O)O)cc2)NC(=O)[C@H](CN)NC(=O)CSC[C@@H](C(=O)N[C@@H](C)C(N)=O)NC(=O)[C@H]([C@@H](C)O)NC(=O)[C@H](C(C)C)NC(=O)[C@H](CCC2CCCCC2)NC(=O)[C@H](CCN)NC1=O [Compound 1348] |
| 7.73 | CCCC[C@H]1NC(=O)[C@H](CCCN)NC(=O)[C@H](C(C)C)NC(=O)[C@H](Cc2ccc(-c3ccccc3)cc2)NC(=O)[C@H](C(C)C)NC(=O)[C@H](Cc2c[nH]c3ccccc23)NC(=O)[C@H](CC(=O)O)NC(=O)[C@H](Cc2ccc(O)cc2)NC(=O)[C@H](CC(N)=O)NC(=O)CSC[C@@H](C(=O)N[C@@H](C)C(N)=O)NC(=O)[C@H]([C@@H](C)O)NC(=O)[C@H](C(C)C)NC(=O)[C@H](CC2CCCCC2)NC(=O)[C@H](CCN)NC1=O [Compound 1696] ({CH2CO}-NYDWV[Bip]V[Orn][dNle][Dab][Cha]VTCA-NH2; thioether N-14) |

Same assay, conditions: read-out: Jurkat HPD1_PDL1 IC50; Jurkat-PD-1 cells, PE-labeled PD-L1-Ig 20 nM final

| Compound | pIC50 |
| --- | --- |
| CCC(C)[C@@H]1NC(=O)[C@H](Cc2ccc(-c3ccccc3)cc2)NC(=O)[C@H](C2CCCC2)NC(=O)[C@H](Cc2c[nH]c3ccccc23)NC(=O)[C@H](CC(=O)O)NC(=O)[C@H](Cc2ccc(OCC(=O)O)cc2)NC(=O)[C@H](C(C)O)NC(=O)CSC[C@@H](C(=O)N[C@@H](CC(N)=O)C(=O)O)NC(=O)[C@H](CO)NC(=O)[C@H](C(C)C)NC(=O)[C@H](CC(C)C)NC(=O)[C@H](CCN)NC(=O)[C@@H](CC(C)C)NC(=O)[C@H](CCCN)NC1=O (stereo partly drawn) [Compound 2578] ({CH2CO}-[Thr(3ξ)]Y(Carboxymethyl)DW[Gly(cPent)][Bip][Ile(3ξ)][Orn][dL][Dab]LVSCN-OH; thioether N-14) | 7.61 |
